Test results reported in patent publication US12679807B2 (MERCK SHARP & DOHME LLC, priority 2020, dated 2026).

biological target: T1, GCS enzyme contained within Golgi preparations isolated from human A375 malignant melanoma skin cells (Homo sapiens, UniProt Q16739); experiment: UDP-Glo glucosylceramide synthase biochemical assay; conditions: crude Golgi preparation from A375 cells; C6 ceramide and UDP-glucose substrates; 20 h incubation at room temperature; UDP detected by luminescence
T1 construct: endogenous levels of GCS enzyme contained within Golgi preparations isolated from human A375 malignant melanoma skin cells; endogenous in cells; host or cells: A375 human malignant melanoma cells (crude Golgi preparation)
T1 sequence (Q16739 1-394): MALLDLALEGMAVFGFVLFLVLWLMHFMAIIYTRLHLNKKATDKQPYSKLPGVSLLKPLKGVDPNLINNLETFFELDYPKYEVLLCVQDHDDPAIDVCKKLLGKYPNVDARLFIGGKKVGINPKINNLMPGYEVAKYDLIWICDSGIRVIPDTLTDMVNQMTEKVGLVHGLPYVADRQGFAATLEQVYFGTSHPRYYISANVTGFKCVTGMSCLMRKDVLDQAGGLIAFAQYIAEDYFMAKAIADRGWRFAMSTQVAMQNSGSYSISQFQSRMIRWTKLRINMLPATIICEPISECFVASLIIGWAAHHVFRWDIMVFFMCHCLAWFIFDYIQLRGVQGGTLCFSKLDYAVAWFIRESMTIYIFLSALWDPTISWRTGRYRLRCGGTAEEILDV
Method in brief: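 Endogenous enzyme in A375 Golgi preparations (1.5 μg total protein) was preincubated 30 min with compound, then reacted 20 h at room temperature with UDP-glucose and ceramide.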

| Structure (SMILES) | EC50 |
| --- | --- |
| Cn1nc(C(F)(F)F)c2cc(-c3cccc4c3C(=O)N([C@H](C3CC3)C(C)(C)O)C4)ccc21 [Compound 80, (R)-2-(1-cyclopropyl-2-hydroxy-2-methylpropyl)-7-(1-methyl-3-(trifluoromethyl)-1H-indazol-5-yl)isoindolin-1-one] | 0.39 nM |
| Cc1nc(-c2cccc(-c3cccc4c3C(=O)N([C@H](C3CC3)C(C)(C)O)C4)c2)no1 [Compound 81, (R)-2-(1-cyclopropyl-2-hydroxy-2-methylpropyl)-7-(3-(5-methyl-1,2,4-oxadiazol-3-yl)phenyl)isoindolin-1-one] | 31 nM |
| CC(C)(O)[C@@H](C1CC1)N1Cc2cccc(-c3cccc(-c4ncon4)c3)c2C1=O [Compound 82, (R)-7-(3-(1,2,4-oxadiazol-3-yl)phenyl)-2-(1-cyclopropyl-2-hydroxy-2-methylpropyl)isoindolin-1-one] | 46 nM |
| CN1C(=O)Cc2cc(-c3cccc4c3C(=O)N([C@H](C3CC3)C(C)(C)O)C4)ccc21 [Compound 85, (R)-5-(2-(1-cyclopropyl-2-hydroxy-2-methylpropyl)-3-oxoisoindolin-4-yl)-1-methylindolin-2-one] | 8.2 nM |
| Cc1cc2c(cnn2C)cc1-c1cccc2c1C(=O)N([C@H](C1CC1)C(C)(C)O)C2 [Compound 87, (R)-2-(1-cyclopropyl-2-hydroxy-2-methylpropyl)-7-(1,6-dimethyl-1H-indazol-5-yl)isoindolin-1-one] | 9.5 nM |
| CC(C)(O)[C@@H](C1CC1)N1Cc2cccc(-c3cnn(-c4ccncc4)c3)c2C1=O [Compound 89, (R)-2-(1-cyclopropyl-2-hydroxy-2-methylpropyl)-7-(1-(pyridin-4-yl)-1H-pyrazol-4-yl)isoindolin-1-one] | 420 nM |
| Cn1cc(-c2ccc(-c3cccc4c3C(=O)N([C@H](C3CC3)C(C)(C)O)C4)cc2)nn1 [Compound 94, 2-[(1R)-1-cyclopropyl-2-hydroxy-2-methyl-propyl]-7-[4-(1-methyltriazol-4-yl)phenyl]isoindolin-1-one] | 24 nM |
| Cc1c(CO)noc1-c1ccc(-c2cccc3c2C(=O)N([C@H](C2CC2)C(C)(C)O)C3)cc1 [Compound 96, 2-[(1R)-1-cyclopropyl-2-hydroxy-2-methyl-propyl]-7-[4-[3-(hydroxymethyl)-4-methyl-isoxazol-5-yl]phenyl]isoindolin-1-one] | 1.4 nM |
| COc1cc(C#N)nc(-c2cccc3c2C(=O)N([C@H](C2CC2)C(C)(C)O)C3)c1 [Compound 97, (R)-6-(2-(1-cyclopropyl-2-hydroxy-2-methylpropyl)-3-oxoisoindolin-4-yl)-4-methoxypicolinonitrile] | 12 nM |
| CCOc1ccccc1C(=O)Nc1cccc2c1C(=O)N([C@H](C)C(C)(C)O)C2 [Compound 99, (R)-2-Ethoxy-N-(2-(3-hydroxy-3-methylbutan-2-yl)-3-oxoisoindolin-4-yl)benzamide] | 140 nM |
| CCOc1ccccc1C(=O)Nc1cccc2c1C(=O)N([C@@H](CO)C(C)C)C2 [Compound 100, (R)-2-ethoxy-N-(2-(1-hydroxy-3-methylbutan-2-yl)-3-oxoisoindolin-4-yl)benzamide] | 150 nM |
| CCOc1ccccc1C(=O)Nc1cccc2c1C(=O)N(CC1(O)CCC1)C2 [Compound 105, 2-ethoxy-N-(2-((1-hydroxycyclobutyl)methyl)-3-oxoisoindolin-4-yl)benzamide] | 650 nM |
| CCOc1ccccc1C(=O)Nc1cccc2c1C(=O)N(CC1(O)COC1)C2 [Compound 106, 2-ethoxy-N-(2-((3-hydroxyoxetan-3-yl)methyl)-3-oxoisoindolin-4-yl)benzamide] | 720 nM |
| O=C(Nc1cccc2c1C(=O)N(C(C1CC1)C1CC1)C2)c1c(Cl)cnc2c1OCO2 [Compound 118, 6-chloro-N-(2-(dicyclopropylmethyl)-3-oxoisoindolin-4-yl)-[1,3]dioxolo[4,5-b]pyridine-7-carboxamide] | 5.7 nM |
| O=C(Nc1cccc2c1C(=O)N(C(C1CC1)C1CC1)C2)c1ccnc2c1CCC2 [Compound 121, N-(2-(dicyclopropylmethyl)-3-oxoisoindolin-4-yl)-6,7-dihydro-5H-cyclopenta[b]pyridine-4-carboxamide] | 15 nM |
| Cc1ccc(Cl)c(C(=O)Nc2cccc3c2C(=O)N([C@@H](CO)C(C)C)C3)c1F [Compound 122, (R)-6-chloro-2-fluoro-N-(2-(1-hydroxy-3-methylbutan-2-yl)-3-oxoisoindolin-4-yl)-3-methylbenzamide] | 18 nM |
| CC(C)[C@H](CO)N1Cc2cccc(NC(=O)c3c(Cl)ccc(F)c3Cl)c2C1=O [Compound 124, (R)-2,6-dichloro-3-fluoro-N-(2-(1-hydroxy-3-methylbutan-2-yl)-3-oxoisoindolin-4-yl)benzamide] | 26 nM |
| Cn1ccc2c(C(=O)Nc3cccc4c3C(=O)N(C(C3CC3)C3CC3)C4)cccc21 [Compound 126, N-(2-(dicyclopropylmethyl)-3-oxoisoindolin-4-yl)-1-methyl-1H-indole-4-carboxamide] | 35 nM |

Further compounds by falling EC50, results first:

| EC50 | Structure (SMILES) |
| --- | --- |
| 520 nM | Cc1ncc(-c2ccc(-c3cccc4c3C(=O)N([C@H](C3CC3)C(C)(C)O)C4)cc2)o1 [Compound 91, 2-[(1R)-1-cyclopropyl-2-hydroxy-2-methyl-propyl]-7-[4-(2-methyloxazol-5-yl)phenyl]isoindolin-1-one] |
| 450 nM | CCOc1ccccc1C(=O)Nc1cccc2c1C(=O)N([C@@H]1CCCC[C@@H]1O)C2 [Compound 103, 2-ethoxy-N-(2-((1R,2S)-2-hydroxycyclohexyl)-3-oxoisoindolin-4-yl)benzamide] |
| 260 nM | CCOc1ccccc1C(=O)Nc1cccc2c1C(=O)N([C@@H](CO)C1CC1)C2 [Compound 102, (R)-N-(2-(1-cyclopropyl-2-hydroxyethyl)-3-oxoisoindolin-4-yl)-2-ethoxybenzamide] |
| 100 nM | CC(C)(O)[C@@H](C1CC1)N1Cc2cccc(-c3ccc(-c4ncon4)cc3)c2C1=O [Compound 83, (R)-7-(4-(1,2,4-oxadiazol-3-yl)phenyl)-2-(1-cyclopropyl-2-hydroxy-2-methylpropyl)isoindolin-1-one] |
| 90 nM | Cc1nc(-c2ccc(-c3cccc4c3C(=O)N([C@H](C3CC3)C(C)(C)O)C4)cc2)no1 [Compound 88, (R)-2-(1-cyclopropyl-2-hydroxy-2-methylpropyl)-7-(4-(5-methyl-1,2,4-oxadiazol-3-yl)phenyl)isoindolin-1-one] |
| 83 nM | CC(C)(O)[C@@H](C1CC1)N1Cc2cccc(-c3ccc(-c4cnsc4)cc3)c2C1=O [Compound 95, (R)-2-(1-cyclopropyl-2-hydroxy-2-methylpropyl)-7-(4-(isothiazol-4-yl)phenyl)isoindolin-1-one] |
| 55 nM | COc1cc(Cl)nc(-c2cccc3c2C(=O)N([C@H](C2CC2)C(C)(C)O)C3)c1 [Compound 93, (R)-7-(6-chloro-4-methoxypyridin-2-yl)-2-(1-cyclopropyl-2-hydroxy-2-methylpropyl)isoindolin-1-one] |
| 43 nM | CCOc1ccccc1C(=O)Nc1cccc2c1C(=O)N(C(C1CC1)C1CC1)C2 [Compound 98, N-(2-(Dicyclopropylmethyl)-3-oxoisoindolin-4-yl)-2-ethoxybenzamide] |
| 33 nM | CC(C)(O)[C@@H](C1CC1)N1Cc2cccc(-c3cc(Cl)cc(C#N)n3)c2C1=O [Compound 92, 4-chloro-6-[2-[(1R)-1-cyclopropyl-2-hydroxy-2-methyl-propyl]-3-oxo-isoindolin-4-yl]pyridine-2-carbonitrile] |
| 30 nM | CC(C)[C@H](CO)N1Cc2cccc(NC(=O)c3nc(C(F)(F)F)ccc3Cl)c2C1=O [Compound 125, (R)-3-chloro-N-(2-(1-hydroxy-3-methylbutan-2-yl)-3-oxoisoindolin-4-yl)-6-(trifluoromethyl)picolinamide] |
| 26 nM | C[C@@H](N1Cc2cccc(NC(=O)c3c(Cl)ccc(F)c3Cl)c2C1=O)C(C)(C)O [Compound 123, (R)-2,6-dichloro-3-fluoro-N-(2-(3-hydroxy-3-methylbutan-2-yl)-3-oxoisoindolin-4-yl)benzamide] |
| 5.2 nM | Cc1cnc2c(c1C(=O)Nc1cccc3c1C(=O)N(C(C1CC1)C1CC1)C3)OCO2 [Compound 117, N-(2-(dicyclopropylmethyl)-3-oxoisoindolin-4-yl)-6-methyl-[1,3]dioxolo[4,5-b]pyridine-7-carboxamide] |
| 4.8 nM | CN1C(=O)Cc2ccc(-c3cccc4c3C(=O)N([C@H](C3CC3)C(C)(C)O)C4)cc21 [Compound 84, (R)-6-(2-(1-cyclopropyl-2-hydroxy-2-methylpropyl)-3-oxoisoindolin-4-yl)-1-methylindolin-2-one] |
| 2 nM | Cc1cc(-c2ccc(-c3cccc4c3C(=O)N([C@H](C3CC3)C(C)(C)O)C4)cc2)on1 [Compound 90, (R)-2-(1-cyclopropyl-2-hydroxy-2-methylpropyl)-7-(4-(3-methylisoxazol-5-yl)phenyl)isoindolin-1-one] |
| 2 nM | O=C(Nc1cccc2c1C(=O)N(C(C1CC1)C1CC1)C2)c1c(Br)ccc2c1OCO2 [Compound 109, 5-Bromo-N-(2-(dicyclopropylmethyl)-3-oxoisoindolin-4-yl)-benzo[d][1,3]dioxole-4-carboxamide] |
| 0.58 nM | Cc1nn(C)c2ccc(-c3cccc4c3C(=O)N([C@H](C3CC3)C(C)(C)O)C4)cc12 [Compound 86, (R)-2-(1-cyclopropyl-2-hydroxy-2-methylpropyl)-7-(1,3-dimethyl-1H-indazol-5-yl)isoindolin-1-one] |
